Source: PubChem BioAssay (NCI)
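Protocol summary: plate cells (96-well), add compound at 5 concentrations, incubate 48 h, interpolate endpoints linearly. GI50: concentration for 50% inhibition of growth. The concentration for full growth arrest is given as TGI.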

Tests used:
Assay in all cases: NCI tumour cell line growth inhibition, 48 h
HCT-15 colon = system: HCT-15 colon
K-562 leukemia = system: K-562 leukemia
MOLT-4 leukemia = system: MOLT-4 leukemia
NCI-H23 lung = system: NCI-H23 lung
NCI-H460 lung = system: NCI-H460 lung
RPMI-8226 leukemia = system: RPMI-8226 leukemia
TK-10 renal = system: TK-10 renal
HS 578T breast = system: HS 578T breast
BT-549 breast = system: BT-549 breast
PC-3 prostate = system: PC-3 prostate

Structure (SMILES) | TGI (HCT-15 colon) [µM] | TGI (K-562 leukemia) [µM] | TGI (MOLT-4 leukemia) [µM] | TGI (NCI-H23 lung) [µM] | TGI (NCI-H460 lung) [µM] | TGI (RPMI-8226 leukemia) [µM] | TGI (TK-10 renal) [µM] | GI50 (HS 578T breast) [µM] | TGI (HS 578T breast) [µM] | GI50 (RPMI-8226 leukemia) [µM] | GI50 (BT-549 breast) [µM] | TGI (BT-549 breast) [µM] | GI50 (HCT-15 colon) [µM] | GI50 (K-562 leukemia) [µM] | GI50 (MOLT-4 leukemia) [µM] | GI50 (NCI-H23 lung) [µM] | GI50 (NCI-H460 lung) [µM] | GI50 (PC-3 prostate) [µM] | TGI (PC-3 prostate) [µM] | GI50 (TK-10 renal) [µM]
COc1ccc2nc(NC(=O)C(=O)C(C#N)c3ccc(CC#N)cc3)sc2c1 (configuration not stated) | > 100 | > 100 | > 100 | > 100 | > 100 | > 100 | > 100 |  |  |  |  |  |  |  |  |  |  |  |  | 
Cc1ccc(/C=C2\CN(C(=O)CCN3CCC(=NO)CC3)C/C(=C\c3ccc(C)cc3)C2=O)cc1 |  |  |  |  |  | 0.885 |  | 3.2 | > 100 | 0.286 |  |  |  |  |  |  |  |  |  | 
CCOc1c(Cc2ccccc2)c(=O)n2c3ccccc3n3c(=O)n(C)c(=O)c1c23 | > 100 |  | > 100 | > 100 | > 100 | > 100 | > 100 |  |  |  |  |  |  |  |  |  |  |  |  | 
O=[P+](O)c1cc2c3ccccc3ccc2c2ccccc12 |  | > 100 | > 100 | > 100 | > 100 | > 100 | > 100 |  |  |  |  |  |  |  |  |  |  |  |  | 
C/C(=N/OCCC(=O)O)C1CC1 | > 100 | > 100 |  | > 100 | > 100 | > 100 | > 100 |  |  |  |  |  |  |  |  |  |  |  |  | 
Nc1ccc(C(=O)N/C(=C\c2ccc3c(c2)OCO3)c2nc3ccc4c(c3[nH]2)C(=O)c2ccccc2C4=O)cc1 | > 100 | > 100 | > 100 | 56.5 | > 100 | > 100 | 85.7 |  |  |  |  |  |  |  |  |  |  |  |  | 
CCN(CC)Cc1cc(Nc2c3ccc(Cl)cc3nc3c(C)cccc23)ccc1O | 2.87 | 5.48 | 10.9 | 3.22 | 2.7 |  | 5.59 | 1.92 | 4.57 |  | 1.92 | 3.51 | 1.15 | 1.16 | 0.855 | 1.65 | 1.16 | 1.55 | 3.1 | 2.69
O=C1NC(=Nc2ccccc2Cl)SC1C(=O)Nc1ccc([N+](=O)[O-])cc1[N+](=O)[O-] (configuration not stated) | > 100 | > 100 | > 100 | > 100 | > 100 | > 100 | > 100 |  |  |  |  |  |  |  |  |  |  |  |  | 
COc1cc2ccc(C(=O)O)cc2cc1OC | > 100 | > 100 | > 100 | > 100 | > 100 | > 100 | > 100 |  |  |  |  |  |  |  |  |  |  |  |  | 
Nc1ccc(Sc2ccc3c4c2cccc4c(=O)n2c4ccccc4nc32)cc1 | 40 | > 100 | 7.68 | > 100 | 14.3 | 14.3 |  | 10.1 | > 100 | 2.5 | 6.06 | 56.3 | 3.34 | 4.93 | 2.57 | 5.03 | 1.9 | 2.67 | 21.7 | 
CC(C)C(NCc1c2ccccc2nc2ccccc12)C(=O)O (configuration not stated) | > 100 | > 100 | 69.1 | > 100 | > 100 | > 100 | > 100 |  |  |  |  |  |  |  |  |  |  |  |  | 
O=C1/C(=C/c2ccccc2)CN(C(=O)Oc2ccccc2)C/C1=C\c1ccccc1 | > 100 | 22.1 |  | > 100 | > 100 | 0.819 | 42.5 |  |  |  |  |  |  |  |  |  |  |  |  | 
CCCN(CCC)c1c([N+](=O)[O-])cc(C(N)=O)cc1[N+](=O)[O-] | > 100 | > 100 | > 100 | > 100 | > 100 | > 100 | > 100 |  |  |  |  |  |  |  |  |  |  |  |  | 
CCC1C(=O)OCc2c1cc1n(c2=O)Cc2ccccc2-1 (configuration not stated) | > 100 | > 100 | > 100 | > 100 | > 100 | > 100 | > 100 |  |  |  |  |  |  |  |  |  |  |  |  | 
COc1ccccc1NC(=O)NS(=O)(=O)c1ccccc1 |  |  |  | > 100 | > 100 |  | > 100 |  |  |  |  |  |  |  |  |  |  |  |  | 
CCN1CCN(c2nc(NNC(=O)c3cccc(OC)c3)nc(N3CCN(C(c4ccccc4)c4ccccc4)CC3)n2)CC1 |  | > 100 | 4.72 | 5.03 | 3.39 | 4.4 | 3.55 | 1.89 | 4.43 | 1.84 | 2.65 | 9.81 |  | 2.79 | 2.03 | 1.92 | 1.75 | 2.24 | 13.4 | 1.78
c1cc[c]([Sn]([O]c2cccc3cccnc23)([c]2ccccc2)[c]2ccccc2)cc1 | 0.0285 | 0.0521 | 0.0402 | 0.0397 | 0.0321 | 0.05 | 0.0693 |  |  | 0.0184 |  |  | 0.0139 | < 0.01 | 0.0102 | 0.0158 | 0.0154 |  |  | 0.0229
CC(C)=CCCC1(C)C=Cc2c(ccc3c2[nH]c2cc(O)c(C)cc23)O1 (configuration not stated) | 10.8 | 15.6 | 11.2 |  | 9.7 | 18.9 | > 25 |  |  |  |  |  | 4.96 | 5.64 | 4.16 |  | 4.73 |  |  | 16.7
COC(=O)C1=C(c2cc(OC)c(OC)c(OC)c2)OC(c2cc(OC)c(OC)c(OC)c2)C1 (configuration not stated) | > 100 | > 100 | 68.5 | 48.9 | > 100 | 96.6 | 63.9 |  |  |  |  |  |  |  |  |  |  |  |  | 
C=C(C)[C@@H]1CC[C@@H]2C(=CC[C@]3(C)C([C@H](C)CC/C=C(/C)C(=O)O)CC[C@@]23C)[C@@]1(C)CCC(=O)O (some centres not stated) | 44.4 | > 100 |  | 57.2 | 40.6 | 58.2 | > 100 |  | > 100 |  |  | 51 |  |  |  |  |  |  | 65.9 | 
NC(=O)COc1ccc(Br)cc1Br | > 100 | > 100 | > 100 | > 100 | > 100 | > 100 |  |  |  |  |  |  |  |  |  |  |  |  |  | 
N#CC(N)(C(=O)C(=O)NCCCNC(=O)C(=O)C(N)(C#N)c1ccc(Cl)cc1)c1ccc(Cl)cc1 (configuration not stated) | > 100 | > 100 | > 100 | > 100 | > 100 | > 100 | > 100 |  |  |  |  |  |  |  |  |  |  |  |  | 
O=C(O)c1ccccc1/C=C1/Nc2ccccc2C1=O | > 100 | > 100 | > 100 | > 100 | > 100 | > 100 | > 100 |  | > 100 |  |  |  |  |  |  |  |  |  | > 100 | 
